According to US20070255062A1, “Benzoyl Amino Pyridyl Carboxylic Acid Derivatives Useful as Glucokinase (Glk) Activators” (priority 2003, published 2007):

How the values were obtained:
[1] = biological target: T1, glucokinase (GLK) (Homo sapiens, UniProt P35557); assay: Enzymatic activity of GLK (G-6-P dehydrogenase, NADP/NADPH coupled assay), activation by compounds; type: biochemical; settings: read-out: EC50 (activating activity for glucokinase)
T1 construct: 6-His (N); made in house; host or cells: E. coli BL21 (vector pTB375NBSE)
T1 sequence (P35557 1-466 isoform P35557-2): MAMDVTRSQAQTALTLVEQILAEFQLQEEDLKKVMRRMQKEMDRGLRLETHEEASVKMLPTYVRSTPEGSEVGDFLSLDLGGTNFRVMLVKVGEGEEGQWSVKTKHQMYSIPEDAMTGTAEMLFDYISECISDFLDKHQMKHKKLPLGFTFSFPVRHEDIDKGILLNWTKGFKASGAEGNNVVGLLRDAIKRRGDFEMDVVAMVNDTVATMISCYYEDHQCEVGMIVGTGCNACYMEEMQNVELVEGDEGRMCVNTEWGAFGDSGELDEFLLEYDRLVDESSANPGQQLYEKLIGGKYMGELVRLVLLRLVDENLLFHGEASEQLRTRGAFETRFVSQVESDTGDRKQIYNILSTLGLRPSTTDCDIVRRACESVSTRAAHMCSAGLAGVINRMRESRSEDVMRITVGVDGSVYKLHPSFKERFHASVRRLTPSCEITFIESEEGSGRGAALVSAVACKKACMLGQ
Procedure: (1) Enzymatic activity of GLK may be measured by incubating GLK, ATP and glucose. The rate of product formation may be determined by coupling the assay to a G-6-P dehydrogenase, NADP/NADPH system and measuring the linear increase in optical density at 340 nm (atschinsky et al 1993). Activation of GLK by compounds can be assessed using this assay in the presence or absence of GLKRP (GLK regulatory protein) as described in Brocklehurst et al (Diabetes 2004, 53, 535-541).
GLK was expressed from the vector pTB375NBSE in E.coli BL21 cells, producing a recombinant protein containing a 6-His tag immediately adjacent to the N-terminal methionine. Alternatively, another suitable vector is pET21(+)DNA, Novagen, Cat number 697703. The 6-His tag was used to allow purification of the recombinant protein on a column packed with nickel-nitrilotriacetic acid agarose purchased from Qiagen (cat no 30250).

[2] = Plasma protein binding by equilibrium dialysis; type: in vitro ADME; settings: rat, 18 hours at 37° C., plasma vs isotonic phosphate buffer pH 7.4, read-out: % free in plasma
Procedure: Measurements of Plasma Protein Binding of Compounds
The plasma protein binding of compounds was measured using the equilibrium dialysis technique (W. Lindner et al, J. Chromatography, 1996, 677, 1-28). Compound was dialysed at a concentration of 20 μM for 18 hours at 37° C. with plasma and isotonic phosphate buffer pH 7.4 (1 ml of each in the dialysis cell). A Spectrum® 20-cell equilibrium dialyser was used together with Teflon, semi-micro dialysis cells and Spectra/Por®2 membrane discs with a molecular weight cut off 12-14000 Dalton, 47 mm (supplied by PerBio Science UK Ltd, Tattenhall, Cheshire). Plasma and buffer samples are removed following dialysis and analysed using HPLCUV/MS (high performance liquid chromatography with UV and mass spec detection) to give the % free level in plasma.

[3] = Plasma levels following oral administration to rats; type: in vivo; settings: rat, oral gavage, normalised dose of 1 mg of compound per kilogram of rat body weight
Procedure: Measurement of Plasma Levels and Plasma Protein Binding Following Oral Administration to Rats
Planetary Milled compounds [15 mins, 500 rpm, 5 Zirconium Balls, in a Puluerisette 7 Mill (Glen Creston Ltd, Stanmore, Middlesex, UK)] were suspended in 0.5% HPMC Tween and dosed to High Fat Fed (Research Diets, D12451, ad lib feeding 14 days) Female Alderley Park Zucker or Alderley Park Wistar rats at rate of 5 mls/kg, at doses between 0.3 and 10 mg/kg by oral gavage.
Samples of plasma were obtained either by conscious blood sampling or terminal blood sampling as follows:
Conscious blood sampling (for compound level or blood chemistry)—Intravenous blood samples were taken from tail vein using 600 μL Starstedt Multivette (EDTA) and 22 G needle at the required time point. […]
The reconstituted samples were then analysed using high performance liquid chromatography with tandem mass spectrometry detection (HPLC-MS-MS)”. […]
The concentration of test samples was determined from the ratio of the peak height of the test sample to the peak height of the internal standard. The concentration of the test sample was calculated with reference to a standard curve relating the ratio to the concentration prepared by using known concentrations of test sample added to samples of rat plasma using (3-isopropoxy-5-benzyoxy-benzoyl)amino pyridine 3-carboxylic acid as an internal standard, treated as described above.

[4] = Estimation of plasma half-life; type: in vivo; settings: rat, typically determined following intravenous administration, semilogarithmic plot, read-out: t½ (half life in plasma) (converted)
Description: Estimation of Plasma Half-Life
The plasma half-life is the time taken for the concentration of compound in the plasma to decline to half of its original value. This is typically determined following intravenous administration of the test compound, followed by measurement of the compound concentrations in plasma samples as described above. The plasma half-life is estimated from a semilogarithmic plot, plotting the log of the plasma concentration (lnCp) against sample time (t, linear). The apparent first-order elimination rate constant, k, is equal to the slope of the line, and the elimination half-life (t1/2) is […] (Gibaldi, M and Perrier, D, 1975 Pharmacokinetics, Marcel Dekker, New York): [formula]

## COC[C@H](C)Oc1cc(Oc2cccc(C)c2)cc(C(=O)Nc2ccc(C(=O)O)cn2)c1 [Example 1, 6-[3-{(1S)-1-methyl-2-methoxy-ethoxy}-5-{3-methylphenoxy}phenylcarbonylamino]pyridine-3-carboxylic acid]
[1]
  EC50: 110 nM
[2]
  fraction unbound at 18 h, 20 μM: 0.0076
[3]
  Peak Blood levels (including both bound and free): 2.06 µM
[4]
  half-life: 6.4 h
